Laboratory results published in patent US20220380368A1, “SPIROCYCLIC ANDROGEN RECEPTOR PROTEIN DEGRADERS” (THE REGENTS OF THE UNIVERSITY OF MICHIGAN, priority 2019, published 2022).

target: T1, AR protein (Homo sapiens, UniProt P10275); test: Western blotting analysis of AR protein levels in VCaP cells, band quantification, DC50/DC90; format: cell-based; conditions: VCaP cells, Table 6; read-out: VCaP DC50
T1 construct: endogenous in cells; host or cells: VCaP
T1 sequence (P10275 1-920): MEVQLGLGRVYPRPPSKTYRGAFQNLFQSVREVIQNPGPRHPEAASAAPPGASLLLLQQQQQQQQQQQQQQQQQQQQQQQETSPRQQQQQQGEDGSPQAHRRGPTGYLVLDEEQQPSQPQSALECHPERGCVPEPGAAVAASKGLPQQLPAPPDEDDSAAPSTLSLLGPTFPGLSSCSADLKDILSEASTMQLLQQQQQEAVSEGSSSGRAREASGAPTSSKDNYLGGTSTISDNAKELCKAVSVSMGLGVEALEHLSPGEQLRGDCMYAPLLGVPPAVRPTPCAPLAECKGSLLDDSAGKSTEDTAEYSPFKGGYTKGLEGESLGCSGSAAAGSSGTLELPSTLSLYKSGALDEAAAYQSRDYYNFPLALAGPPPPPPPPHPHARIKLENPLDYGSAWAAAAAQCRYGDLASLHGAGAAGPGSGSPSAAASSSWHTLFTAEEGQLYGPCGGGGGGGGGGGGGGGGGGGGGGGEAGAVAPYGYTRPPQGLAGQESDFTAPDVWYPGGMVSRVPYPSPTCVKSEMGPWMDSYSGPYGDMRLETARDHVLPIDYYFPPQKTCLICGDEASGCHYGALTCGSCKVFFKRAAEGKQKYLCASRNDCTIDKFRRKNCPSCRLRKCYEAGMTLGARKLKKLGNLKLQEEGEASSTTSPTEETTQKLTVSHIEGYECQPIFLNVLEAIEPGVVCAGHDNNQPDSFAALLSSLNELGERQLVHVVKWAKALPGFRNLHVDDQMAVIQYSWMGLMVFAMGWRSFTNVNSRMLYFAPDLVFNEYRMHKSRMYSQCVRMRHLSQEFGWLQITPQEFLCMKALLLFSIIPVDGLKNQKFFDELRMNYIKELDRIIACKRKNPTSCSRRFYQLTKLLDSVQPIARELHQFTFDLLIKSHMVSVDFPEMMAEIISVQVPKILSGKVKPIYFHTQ
Experimental: The appropriate cell line, e.g., prostate cancer LNCaP, Vcap, or 22RV1 cell line, was treated with Compounds of the Disclosure as indicated. The treated cells were lysed with RIPA buffer. […] GAPDH was used as a loading control.
Bands were quantified with ImageJ software. The relative numbers of each band obtained from normalization with its corresponding GAPDH level were compared with Prism 8 software. The DC50 values were produced from Prism 8, and the DC90 values were calculated with an equation=Bottom+(Top−Bottom)/(1+10^((Log EC50−X)*HillSlope) based on DC50 and Hillslope values.

**Q.** With `C[C@H]1CC2(CCN(c3ccc(C(=O)N4CCN(C5CN(c6cc7c(cc6F)C(=O)N(C6CCC(=O)NC6=O)C7=O)C5)CC4)nn3)CC2)CN1c1ccc(C#N)c(Cl)c1` (stereo partly drawn) [Cpd. No. 536, 2-chloro-4-((3S)-8-(6-(4-(1-(2-(2,6-dioxopiperidin-3-yl)-6-fluoro-1,3-dioxoisoindolin-5-yl)azetidin-3-yl)piperazine-1-carbonyl)pyridazin-3-yl)-3-methyl-2,8-diazaspiro[4.5]decan-2-yl)benzonitrile] as the compound, how does the DC50 read?
**A.** < 1 nM

**Q.** For `C[C@H]1CC2(CCN(c3ccc(C(=O)N4CC[C@H](N5CCN(c6ccc7c(c6)C(=O)N(C6CCC(=O)NC6=O)C7=O)CC5)C4)cc3)CC2)CN1c1ccc(C#N)c(Cl)c1` (stereo partly drawn) [Cpd. No. 516, 2-chloro-4-((3S)-8-(4-((3S)-3-(4-(2-(2,6-dioxopiperidin-3-yl)-1,3-dioxoisoindolin-5-yl)piperazin-1-yl)pyrrolidine-1-carbonyl)phenyl)-3-methyl-2,8-diazaspiro[4.5]decan-2-yl)benzonitrile], which DC50 is on record?
**A.** 1 to 10 nM

**Q.** For `C[C@H]1CC2(CCN(c3ccc(C(=O)N4CCN(C5CN(c6cc7c(cc6F)C(=O)N(C6CCC(=O)NC6=O)C7=O)C5)CC4)nn3)CC2)CN1c1ccc(C#N)c(Cl)c1` (stereo partly drawn) [Cpd. No. 501, 2-chloro-4-((3S)-8-(6-(4-(1-(2-(2,6-dioxopiperidin-3-yl)-6-fluoro-1,3-dioxoisoindolin-5-yl)azetidin-3-yl)piperazine-1-carbonyl)pyridazin-3-yl)-3-methyl-2,8-diazaspiro[4.5]decan-2-yl)benzonitrile], which DC50 is on record?
**A.** < 1 nM

**Q.** With `C[C@H]1CC2(CCN(c3ccc(C(=O)N4CCN(C5CN(c6cc7c(cc6F)C(=O)N(C6CCC(=O)NC6=O)C7=O)C5)CC4)cn3)CC2)CN1c1ccc(C#N)c(Cl)c1` (stereo partly drawn) [Cpd. No. 504, 2-chloro-4-((3S)-8-(5-(4-(1-(2-(2,6-dioxopiperidin-3-yl)-6-fluoro-1,3-dioxoisoindolin-5-yl)azetidin-3-yl)piperazine-1-carbonyl)pyridin-2-yl)-3-methyl-2,8-diazaspiro[4.5]decan-2-yl)benzonitrile] as the compound, how does the DC50 read?
**A.** < 1 nM

**Q.** How did the DC50 turn out when `C[C@H]1CC2(CCN(c3ccc(C(=O)N4CCC(CN5Cc6cc7c(cc6C5)C(=O)N(C5CCC(=O)NC5=O)C7=O)CC4)c(F)c3)CC2)CN1c1ccc(C#N)c(Cl)c1` (stereo partly drawn) [Cpd. No. 534, 2-chloro-4-((3S)-8-(4-(4-((6-(2,6-dioxopiperidin-3-yl)-5,7-dioxo-3,5,6,7-tetrahydropyrrolo[3,4-f]isoindol-2(1H)-yl)methyl)piperidine-1-carbonyl)-3-fluorophenyl)-3-methyl-2,8-diazaspiro[4.5]decan-2-yl)benzonitrile] was run?
**A.** < 1 nM

**Q.** For `C[C@H]1CC2(CCN(c3ncc(C(=O)N4CCN(C5CN(c6ccc7c(c6)C(=O)N(C6CCC(=O)NC6=O)C7=O)C5)CC4)cn3)CC2)CN1c1ccc(C#N)c(Cl)c1` (stereo partly drawn) [Cpd. No. 512, 2-chloro-4-((3S)-8-(5-(4-(1-(2-(2,6-dioxopiperidin-3-yl)-1,3-dioxoisoindolin-5-yl)azetidin-3-yl)piperazine-1-carbonyl)pyrimidin-2-yl)-3-methyl-2,8-diazaspiro[4.5]decan-2-yl)benzonitrile], which DC50 is on record?
**A.** < 1 nM

**Q.** For `C[C@H]1CC2(CCN(c3ccc(C(=O)N4CCN(C5CN(c6cc7c(cc6F)C(=O)N(C6CCC(=O)NC6=O)C7=O)C5)CC4)cn3)CC2)CN1c1ccc(C#N)c(Cl)c1` (stereo partly drawn) [Cpd. No. 507, 2-chloro-4-((3S)-8-(5-(4-(1-(2-(2,6-dioxopiperidin-3-yl)-6-fluoro-1,3-dioxoisoindolin-5-yl)azetidin-3-yl)piperazine-1-carbonyl)pyridin-2-yl)-3-methyl-2,8-diazaspiro[4.5]decan-2-yl)benzonitrile], which DC50 is on record?
**A.** 10 to 100 nM

**Q.** Which DC50 does the source give for `C[C@H]1CC2(CCN(c3ccc(C(=O)N4CCN(C5CN(c6cc7c(cc6F)C(=O)N(C6CCC(=O)NC6=O)C7=O)C5)CC4)c(F)c3)CC2)CN1c1ccc(C#N)c(Cl)c1` (stereo partly drawn) [Cpd. No. 530, 2-chloro-4-((3S)-8-(4-(4-(1-(2-(2,6-dioxopiperidin-3-yl)-6-fluoro-1,3-dioxoisoindolin-5-yl)azetidin-3-yl)piperazine-1-carbonyl)-3-fluorophenyl)-3-methyl-2,8-diazaspiro[4.5]decan-2-yl)benzonitrile] here?
**A.** < 1 nM

**Q.** `C[C@H]1CC2(CCN(c3ccc(C(=O)N4CCN(C5CCN(c6ccc7c(c6)C(=O)N(C6CCC(=O)NC6=O)C7=O)CC5)CC4)cc3F)CC2)CN1c1ccc(C#N)c(Cl)c1` (stereo partly drawn) [Cpd. No. 518, 2-chloro-4-((3S)-8-(4-(4-(1-(2-(2,6-dioxopiperidin-3-yl)-1,3-dioxoisoindolin-5-yl)piperidin-4-yl)piperazine-1-carbonyl)-2-fluorophenyl)-3-methyl-2,8-diazaspiro[4.5]decan-2-yl)benzonitrile] was tested. Which DC50 did it give?
**A.** 10 to 100 nM

**Q.** With `C[C@H]1CC2(CCN(c3ccc(C(=O)N4CCN(CC5CN(c6cc7c(cc6F)C(=O)N(C6CCC(=O)NC6=O)C7=O)C5)CC4)c(F)c3)CC2)CN1c1ccc(C#N)c(Cl)c1` (stereo partly drawn) [Cpd. No. 531, 2-chloro-4-((3S)-8-(4-(4-((1-(2-(2,6-dioxopiperidin-3-yl)-6-fluoro-1,3-dioxoisoindolin-5-yl)azetidin-3-yl)methyl)piperazine-1-carbonyl)-3-fluorophenyl)-3-methyl-2,8-diazaspiro[4.5]decan-2-yl)benzonitrile] as the compound, how does the DC50 read?
**A.** 1 to 10 nM

**Q.** Which DC50 does the source give for `C[C@H]1CC2(CCN(c3ccc(C(=O)N4CCN(CC5CN(c6cc7c(cc6F)C(=O)N(C6CCC(=O)NC6=O)C7=O)C5)CC4)nn3)CC2)CN1c1ccc(C#N)c(Cl)c1` (stereo partly drawn) [Cpd. No. 503, 2-chloro-4-((3S)-8-(6-(4-((1-(2-(2,6-dioxopiperidin-3-yl)-6-fluoro-1,3-dioxoisoindolin-5-yl)azetidin-3-yl)methyl)piperazine-1-carbonyl)pyridazin-3-yl)-3-methyl-2,8-diazaspiro[4.5]decan-2-yl)benzonitrile] here?
**A.** 1 to 10 nM

**Q.** With `C[C@H]1CC2(CCN(c3ccc(C(=O)N4CC(N5CCN(c6cc7c(cc6F)C(=O)N(C6CCC(=O)NC6=O)C7=O)CC5)C4)cn3)CC2)CN1c1ccc(C#N)c(Cl)c1` (stereo partly drawn) [Cpd. No. 539, 2-chloro-4-((3S)-8-(5-(3-(4-(2-(2,6-dioxopiperidin-3-yl)-6-fluoro-1,3-dioxoisoindolin-5-yl)piperazin-1-yl)azetidine-1-carbonyl)pyridin-2-yl)-3-methyl-2,8-diazaspiro[4.5]decan-2-yl)benzonitrile] as the compound, how does the DC50 read?
**A.** 1 to 10 nM

**Q.** For `C[C@H]1CC2(CCN(c3ccc(C(=O)N4CC(N5CCN(c6cc7c(cc6F)C(=O)N(C6CCC(=O)NC6=O)C7=O)CC5)C4)nc3)CC2)CN1c1ccc(C#N)c(Cl)c1` (stereo partly drawn) [Cpd. No. 538, 2-chloro-4-((3S)-8-(6-(3-(4-(2-(2,6-dioxopiperidin-3-yl)-6-fluoro-1,3-dioxoisoindolin-5-yl)piperazin-1-yl)azetidine-1-carbonyl)pyridin-3-yl)-3-methyl-2,8-diazaspiro[4.5]decan-2-yl)benzonitrile], which DC50 is on record?
**A.** 1 to 10 nM

**Q.** How did the DC50 turn out when `C[C@H]1CC2(CCN(c3ccc(C(=O)N4CCN(C5CN(c6cc7c(cc6F)C(=O)N(C6CCC(=O)NC6=O)C7=O)C5)CC4)cn3)CC2)CN1c1ccc(C#N)c(Cl)c1` (stereo partly drawn) [Cpd. No. 506, 2-chloro-4-((3S)-8-(5-(4-(1-(2-(2,6-dioxopiperidin-3-yl)-6-fluoro-1,3-dioxoisoindolin-5-yl)azetidin-3-yl)piperazine-1-carbonyl)pyridin-2-yl)-3-methyl-2,8-diazaspiro[4.5]decan-2-yl)benzonitrile] was run?
**A.** < 1 nM

**Q.** For `C[C@H]1CC2(CCN(c3ccc(C(=O)N4CCN(C5CN(c6cc7c(cc6F)C(=O)N(C6CCC(=O)NC6=O)C7=O)C5)CC4)cc3F)CC2)CN1c1ccc(C#N)c(Cl)c1` (stereo partly drawn) [Cpd. No. 532, 2-chloro-4-((3S)-8-(4-(4-(1-(2-(2,6-dioxopiperidin-3-yl)-6-fluoro-1,3-dioxoisoindolin-5-yl)azetidin-3-yl)piperazine-1-carbonyl)-2-fluorophenyl)-3-methyl-2,8-diazaspiro[4.5]decan-2-yl)benzonitrile], which DC50 is on record?
**A.** < 1 nM

**Q.** With `C[C@H]1CC2(CCN(c3ccc(C(=O)N4CCN(CC5CN(c6ccc7c(c6)C(=O)N(C6CCC(=O)NC6=O)C7=O)C5)CC4)cc3)CC2)CN1c1ccc(C#N)c(Cl)c1` (stereo partly drawn) [Cpd. No. 535, 2-chloro-4-((3S)-8-(4-(4-((1-(2-(2,6-dioxopiperidin-3-yl)-1,3-dioxoisoindolin-5-yl)azetidin-3-yl)methyl)piperazine-1-carbonyl)phenyl)-3-methyl-2,8-diazaspiro[4.5]decan-2-yl)benzonitrile] as the compound, how does the DC50 read?
**A.** < 1 nM
